Source: PubChem BioAssay (NCI)
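96-well plates; 48 h exposure; 5 concentrations. Endpoints by linear interpolation between flanking doses. Not reached: highest tested concentration assigned. At the GI50, growth is halved. TGI: concentration producing complete growth inhibition.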

What was measured:
Assay in all cases: NCI-60 cell line screen, 48 h
SF-539 CNS = test system: SF-539 CNS
UACC-257 melanoma = test system: UACC-257 melanoma
K-562 leukemia = test system: K-562 leukemia
A549 NSCLC = test system: A549 NSCLC
NCI-H522 lung = test system: NCI-H522 lung
MDA-MB-435 = test system: MDA-MB-435
SK-MEL-28 melanoma = test system: SK-MEL-28 melanoma
BT-549 breast = test system: BT-549 breast
DU-145 prostate = test system: DU-145 prostate
SNB-75 CNS = test system: SNB-75 CNS

Row | Structure (SMILES) | TGI (SF-539 CNS) [µM] | TGI (UACC-257 melanoma) [µM] | TGI (K-562 leukemia) [µM] | TGI (A549 NSCLC) [µM] | TGI (NCI-H522 lung) [µM] | GI50 (MDA-MB-435) [µM] | TGI (MDA-MB-435) [µM] | GI50 (SF-539 CNS) [µM] | GI50 (UACC-257 melanoma) [µM] | GI50 (SK-MEL-28 melanoma) [µM] | TGI (SK-MEL-28 melanoma) [µM] | GI50 (A549 NSCLC) [µM] | GI50 (NCI-H522 lung) [µM] | GI50 (BT-549 breast) [µM] | TGI (BT-549 breast) [µM] | GI50 (DU-145 prostate) [µM] | TGI (DU-145 prostate) [µM] | GI50 (SNB-75 CNS) [µM] | TGI (SNB-75 CNS) [µM] | GI50 (K-562 leukemia) [µM]
1 | C#Cc1c(C)c(/C=C/C(C)=C/C(=O)OC)n(C)c1C | > 100 | > 100 | > 100 | > 100 | > 100 |  |  |  |  |  |  |  |  |  |  |  |  |  |  | 
2 | C=CC(=O)Nc1cc(N2CCN(CC)CC2)ccc1Nc1cc(N(C)C(=O)Nc2c(Cl)c(OC)cc(OC)c2Cl)ncn1 | 15.2 | 30.1 |  | 37.6 | 20.3 | 3.47 | 14.4 | 3.53 | 13.5 | 2.03 | 4.53 | 11.7 | 4.77 | 3.07 | 15.1 | 4.27 | 16.4 | 2.48 | 14.2 | 
3 | CCOc1c(N=Nc2ccccc2Cl)c(-c2ccccc2)nn1C(=S)S | 50.4 | > 100 | > 100 | > 100 | 89.9 |  | > 100 |  |  |  | > 100 |  |  |  | > 100 |  | > 100 |  | > 100 | 
4 | C#Cc1nc2ccccc2c(=O)[nH]1 | 1.42 | 3.15 | 20.4 | 12.9 | 2.18 | 0.51 | 2.13 | 0.345 | 0.505 | 0.861 | 3.42 | 2.96 | 0.765 | 0.222 | 0.422 | 1.63 | 8.25 | 1.8 | 5.16 | 0.544
5 | c1ccc2c(c1)oc1ccc3nsnc3c12 | > 100 | > 100 | > 100 | > 100 | > 100 |  |  |  |  |  | > 100 |  |  |  |  |  |  |  | > 100 | 
6 | OCc1ccc(-c2cscc2-c2ccc(CO)o2)o1 | > 100 | 1.91 | > 100 | 30.6 | > 100 | > 100 | > 100 | > 100 | 0.507 | > 100 | > 100 | 3.89 | > 93.3 | > 87.5 | > 100 | 25.9 | > 100 | 34.5 | > 100 | 7.02
7 | Cc1ccc(S(=O)(=O)c2nc(-c3ccccc3)oc2S(C)=O)cc1 (centres undefined) | 3.01 | 3.11 | 4.77 | 18.5 | 2.59 | 1.53 | 3.04 | 1.55 | 1.58 | 1.95 | 3.5 | 5.23 | 1.12 | 1.71 | 3.37 | 1.25 | 2.63 | 2.69 | 9.55 | 1.4
8 | O=S(=O)(NCn1ccc2ccccc21)c1ccccc1 | > 100 | > 100 | > 100 | > 100 | > 100 |  |  |  |  |  | > 100 |  |  |  |  |  |  |  | > 100 | 
9 | COc1ccc(C(=O)NNc2nc(Cl)nc(N3CCN(C(c4ccccc4)c4ccccc4)CC3)n2)cc1 | 3.21 | 9.06 |  | 39.1 |  | 3.58 | 13 | 1.73 | 2.84 | 1.84 | 3.76 | 17.9 |  | 1.74 | 3.47 | 3.93 | 13.6 | 1.65 | 3.49 | 
10 | NCCOCCOCCNc1nc(-c2ccc(Cl)cc2)nc(N2CCN(c3ccccn3)CC2)n1 | 5.18 | 3.55 |  |  |  | 1.78 | 3.49 | 2.41 | 1.87 | 1.74 | 3.23 |  |  | 4.48 | 21.2 | 2.17 | 4.51 | 2.32 | 7.45 | 
11 | O=C1C=CC(=O)c2c(O)c(NCCOCCO)c(Cl)c(O)c21 | 15 | 8.34 | > 100 | 19.1 | 3.69 |  |  |  |  |  |  |  |  |  |  |  |  |  | 30.9 | 
12 | CC(=O)[O-].[Mn+3].[O-]c1ccccc1C=NCCNCCN=Cc1ccccc1[O-] | > 100 | > 100 | > 100 | > 100 | > 100 |  |  | > 100 | > 100 | > 100 | > 100 | > 100 | 66 |  |  |  |  | > 100 | > 100 | > 100
13 | COC(=O)COc1ccc(/C=C2/N=C(c3ccccc3)N(c3c(C)n(C)n(-c4ccccc4)c3=O)C2=O)cc1 | 30.2 |  | > 100 | > 100 | 41 | 19.7 | 47 | 16.1 |  | 16.8 | 30.9 | > 100 | 17.8 | 17.1 | 42 | 16.6 | 30.2 | 16.7 | 30.7 | 30.4
14 | CSCCCNC(=O)c1ccc2c(c1)/C(=C/c1[nH]c(C)cc1C)C(=O)N2 | > 100 | > 100 | > 100 | > 100 | > 100 | 0.856 | > 100 | 0.734 | 4.67 | 1.65 | > 100 | 2.75 | 0.843 | 2.7 | > 100 | 0.7 | > 100 |  |  | 2.01
15 | Cc1c(-c2ccnc(N)n2)c2c(n1Cc1ccccc1)C(=O)c1ccccc1C2=O |  | > 100 | 44.4 | > 100 | > 100 | 4.84 | 24.2 |  | 23.2 | 17.3 | > 100 | > 100 | > 100 | 2.99 | 8.4 | 9.82 | 41.2 |  |  | 2.92
